# Reference: patent US9241917B2, “Facially amphiphilic polymers and oligomers and uses thereof” (priority 2003, dated 2016)
# Experiments:
# [1] = tested on: Heparin; test: Clotting time of activated plasma in the presence of heparin; assay type: biochemical; set-up: unit not given here; details: heparin 1 unit, 0.2 ug/ml
# [2] = tested on: low molecular weight heparin (LMWH, Innohep); test: Clotting time of activated plasma in the presence of LMWH; assay type: biochemical; details: for Clotting time of activated plasma: LMWH 4.6 ug/ml
# [3] = tested on: Cryptococcus neoformans ATCC 24067; test: Antifungal growth assay (MIC100), Cryptococcus neoformans; assay type: cell-based; details: ATCC24067, 48 h, complete inhibition of growth, 2 days, 37° C.
# Experimental: (§1) Several different genera of fungi were tested for their sensitivity to a set of salicylamide and arylamide oligomers. Both non-filamentous (yeast) and filamentous fungi were tested and specific fungi that are associated with various types of human infections were chosen for the screen (Table 4). […] All growth assays were done in a total of 1 ml volumes and growth was assessed by turbidity measurements. Other assay conditions are described in Table 6.
# [4] = tested on: Trichophyton mentagrophytes ATCC 9533; test: Antifungal growth assay (MIC100), Trichophyton mentagrophytes; assay type: cell-based; details: ATCC9533, 72 h, complete inhibition of growth, 3 days, 28° C.
# Experimental: as §1
# [5] = tested on: Trichophyton rubrum ATCC 10218; test: Antifungal growth assay (MIC100), Trichophyton rubrum; assay type: cell-based; details: ATCC10218, 72 h, complete inhibition of growth, 3 days, 28° C.
# Experimental: as §1
# [6] = tested on: E. coli (ATCC25922); test: Growth assay (MIC100), E. coli control organism; assay type: cell-based; details: Escherichia coli, ATCC25922, 20 h
# Experimental: as §1
# [7] = tested on: Aspergillus fumigatus ATCC 1028; test: Antifungal growth assay (MIC100), Aspergillus fumigatus; assay type: cell-based; details: ATCC1028, 48 h, complete inhibition of growth, 2 days, 28° C.
# Experimental: as §1
# [8] = tested on: Candida albicans ATCC 10231; test: Antifungal growth assay (MIC100), Candida albicans; assay type: cell-based; details: ATCC10231, 20 h
# Experimental: as §1
# [9] = tested on: E. coli; test: Antimicrobial assay, minimal inhibitory concentration against E. coli
# [10] = tested on: human erythrocytes; test: Hemolysis of human erythrocytes; assay type: cell-based
# Experimental: For example, cytotoxic selectivity can be assessed by determining the hemolytic activity of the polymer or oligomer. Hemolytic activity assays are performed by measuring the degree of hemolysis of human erythrocytes following incubation in the presence of the polymer or oligomer and determining HC50 values. […] See also Javadpour, M. M., et al., J. Med. Chem. 39:3107-3113 (1996).
# The toxicity to mammalian cells of polymers and oligomers of the present invention was evaluated using human blood obtained from healthy volunteers, anticoagulated with 0.1 volume of sodium citrate. The general procedure is as follows: Washed erythrocytes are suspended in either HEPES buffer, pH 7.4, containing 1 mM Mg2^+ and 1 mM Ca2^+ or in heated and unheated autologous serum obtained from clotted blood. Red cell agglutination is evaluated microscopically and red cell lysis is evaluated by measuring the amount of released hemoglobin spectroscopically. The effect of polymers on platelet function is studied by adding increasing concentrations of polymer to citrate-anticoagulated platelet-rich plasma. Platelet aggregation and secretion are then evaluated in a lumi-aggregometer (Chrono-Log).
# One distinction is that the studies with Pmx10073 were done in whole blood. […] The concentrations of compound that are cytotoxic for mammalian cells were determined and compared to efficacious concentrations. […]
Structure (SMILES),"Clotting time, Average ([1]; oligomer 4.4 ug/ml)","Clotting time, Trial #1 ([1]; oligomer 4.4 ug/ml)","Clotting time, Trial #2 ([1]; oligomer 4.4 ug/ml)","Clotting time, Trial #3 ([1]; oligomer 4.4 ug/ml)","Clotting time, Trial #4 ([1]; oligomer 4.4 ug/ml)","Clotting time, Average ([1]; oligomer 44.4 ug/ml)","Clotting time, Trial #1 ([1]; oligomer 44.4 ug/ml)","Clotting time, Trial #2 ([1]; oligomer 44.4 ug/ml)","Clotting time, Trial #3 ([1]; oligomer 44.4 ug/ml)","Clotting time, Trial #4 ([1]; oligomer 44.4 ug/ml)",Clotting time of activated plasma ([2]; oligomer 14.8 ug/ml),Clotting time of activated plasma ([2]; oligomer 0.4 ug/ml),further results
COc1ccc(NC(=O)C(CCCNC(=N)N)NC(=O)c2cc(NC(=O)C(CCCNC(=N)N)NC(=O)c3cc(NC(=O)C(CCCNC(=N)N)NC(=O)c4cc(NC(=O)C(CCCNC(=N)N)NC(=O)c5cc(N)ccc5OC)ccc4OC)ccc3OC)ccc2OC)cc1C(=O)NC(CCCNC(=N)N)C(N)=O (stereo not drawn) [#3],80.3,72.2,75.1,81.2,92.6,36.8,38.7,34.1,38.6,35.6,109.2,,
CC(C)CCOc1ccc(NC(=O)C(CCCNC(=N)N)NC(=O)c2cc(NC(=O)C(CCCNC(=N)N)NC(=O)c3cc(NC(=O)C(CCCNC(=N)N)NC(=O)c4cc(NC(=O)C(CCCNC(=N)N)NC(=O)c5cc(N)ccc5OCCC(C)C)ccc4OCCC(C)C)ccc3OCCC(C)C)ccc2OCCC(C)C)cc1C(=O)NC(CCCNC(=N)N)C(N)=O (stereo not drawn) [#4],169.8,175.5,153.8,157.1,192.6,29.2,31.6,29.6,29.6,26.1,44.9,137.7,
CC(C)CC(NC(=O)c1cc(NC(=O)C(CC(C)C)NC(=O)c2cc(NC(=O)C(CC(C)C)NC(=O)c3cc(NC(=O)C(CC(C)C)NC(=O)c4cc(NC(=O)C(CC(C)C)NC(=O)c5cc(N)ccc5OCCNC(=N)N)ccc4OCCNC(=N)N)ccc3OCCNC(=N)N)ccc2OCCNC(=N)N)ccc1OCCNC(=N)N)C(N)=O (stereo not drawn) [#10],>400,113.8,317.6,>450,>450,38.7,40.7,35.6,36.7,33.7,97.6,,
CC(C)CC(N)C(=O)Nc1cc(C(C)(C)C)cc(NC(=O)c2cccc(C(=O)Nc3cc(C(C)(C)C)cc(NC(=O)C(N)CC(C)C)c3SCCN)c2)c1SCCN (stereo not drawn) [#13],92.4,81.2,88.2,94.1,106.2,,,,,,189.2,,
CC(C)(C)c1cc2c(OCC(=O)NCCCCCN)c(c1)Cc1cc(C(C)(C)C)cc(c1OCC(=O)NCCCCCN)Cc1cc(C(C)(C)C)cc(c1OCC(=O)NCCCCCN)Cc1cc(C(C)(C)C)cc(c1OCC(=O)NCCCCCN)C2 [#18],57.6,57.6,,,,,,,,,48.6,140.1,
CC(C)CCOc1cc(OCCC(C)C)c(C(=O)NNC(=O)c2cc(C(=O)NCCN(C)C)c(OCCCCCN)cc2OCCCCCN)cc1C(=O)NNC(=O)c1cc(C(=O)NCCN(C)C)c(OCCCCCN)cc1OCCCCCN [#19],27.9,29.0,26.7,,,,,,,,34,64.2,"Clotting time, Average ([1]; oligomer 0.4 ug/ml): >400; Clotting time, Trial #1 ([1]; oligomer 0.4 ug/ml): >400; Clotting time, Average ([1]; oligomer 1.5 ug/ml): 40.2; Clotting time, Trial #1 ([1]; oligomer 1.5 ug/ml): 43.2; Clotting time, Trial #2 ([1]; oligomer 1.5 ug/ml): 37.1; Clotting time of activated plasma ([2]; oligomer 1.5 ug/ml): 232.8"
C[C@@H]1[C@H](O)[C@@H](C)/C=C/C=C/C=C/C=C/C=C/C=C/C=C/[C@H](O[C@@H]2O[C@H](C)[C@@H](O)[C@H](N)[C@@H]2O)C[C@@H]2O[C@](O)(C[C@@H](O)C[C@@H](O)[C@H](O)CC[C@@H](O)C[C@@H](O)CC(=O)O[C@H]1C)C[C@H](O)[C@H]2C(=O)O [Amphotericin],,,,,,,,,,,,,MIC [3]: 0.1 µg/mL; MIC [4]: 0.3 µg/mL; MIC [5]: 1 µg/mL; MIC [6]: 3 µg/mL; MIC [7]: 1 µg/mL; MIC [8]: 0.1 µg/mL
CC(C)(C)c1cc(NC(=O)c2cccc(C(=O)Nc3cc(C(C)(C)C)cc(NC(=O)[C@@H](N)CCCNC(=N)N)c3SCCN)c2)c(SCCN)c(NC(=O)[C@@H](N)CCCNC(=N)N)c1 [Compound 6],,,,,,,,,,,,,"MIC ([9]; Escherichia coli, read-out: MIC E. coli): 6 µg/mL; Antimicrobial activity against E. coli, in words ([9]; text on Tables 1 and 2): highly potent and selective; HC50 RBC ([10]; Table 1, arylamide series, one hour incubation, 50% hemoglobin release): 715 µg/mL"
CC(C)(C)c1cc(NC(=O)c2cc(OCCN)cc(C(=O)Nc3cc(C(C)(C)C)cc(NC(=O)[C@H](N)CCCNC(=N)N)c3SCCN)c2)c(SCCN)c(NC(=O)[C@H](N)CCCNC(=N)N)c1 [Compound 12],,,,,,,,,,,,,Concentration lysing red cells (no lysis up to) [10]: > 800 µM
CC(C)CCOc1cc(OCCC(C)C)c(C(=O)NNC(=O)c2cc(C(=O)NCCN(C)C)c(OCCCCCN)cc2OCCCCCN)cc1C(=O)NNC(=O)c1cc(C(=O)NCCN(C)C)c(OCCCCCN)cc1OCCCCCN [Compound 19],,,,,,,,,,,,,"Antagonism of the delay in plasma clotting caused by LMWH, in words ([2]; oligomer 4.4 ug/ml, LMWH (Innohep) 4.6 ug/ml final concentration): significantly antagonized the delay in plasma clotting"
